Test results as given in patent US8318184B2, “MGLU2 agonists” (Eli Lilly and Company, priority 2009, dated 2012).

How the values were obtained:
ICR(CD-1) mice = assay: Reversal of Phencyclidine (PCP)-Induced Hyperlocomotor Activity in Mice; format: in vivo, mouse; conditions: i.p.
Text: This assay for Reversal of Phencyclidine (PCP)-Induced Hyperlocomotor Activity in Mice is run substantially as the Reversal of Phencyclidine (PCP)-Induced Hyperlocomotor Activity in Rats assay provided above, using mice instead of rats and with the changes noted below.
Motor activity is monitored by placing individual male, ICR(CD-1), (Harlan, Indianapolis, Ind.) mice in transparent, plastic shoe-box cages of the dimensions 45×25×20 cm, with 0.5 cm depth of wood chips as bedding, and plastic lid on top of the cage. Motor monitors (Kinder Scientific) consist of a rectangular rack of 12 photobeams arranged in an 8×4 formation, (or a high density grouping of 22 in a 15×7 pattern) at a height of 2.5 cm. The shoe box cage is placed inside of these racks, with the racks on a 3 foot high tabletop in an isolated room. A compound of the present invention is dosed (intraperitoneal route, non-prodrug) usually within a range of 0.3-30 mg/kg; though higher doses may be used, 30 minutes prior to a 7.5 mg/kg challenge dose of phencyclidine (PCP). On the test day, mice are placed in the test cage and allowed to acclimate for 45 minutes prior to PCP challenge; mice are monitored for an additional 60 minutes following PCP administration.
Power analyses have determined that 7-8 mice per group are needed to have appropriate statistical power for detecting treatment differences (power=0.8).

NIH-Swiss mice = assay: Forced Swim Test in mice; format: in vivo, mouse; conditions: i.p.
Description: In this assay, mechanisms with purported antidepressant-like activity decrease immobility in a brief inescapable forced swim episode.
The forced-swim test is conducted with both mice (male, NIH-Swiss mice, 20-25 g, Harlan Sprague-Dawley, Indianapolis, Ind.) and rats (male, Sprague-Dawley rats, 250-350 g, Harlan Sprague-Dawley, Indianapolis, Ind.). Mice are placed in clear plastic cylinders (diameter 10 cm; height: 25 cm) filled to 6 cm with 22-25° C. water for six min. The duration of immobility is recorded during the last 4 min of a six-minute trial. Rats are treated similarly, albeit in clear plastic cylinders of larger dimensions (diameter: 18 cm; height: 40 cm) filled with water (22-25° C.) to a depth of 16 cm for 15 min. Additionally, mice receive a single forced swim exposure; rats receive two, 5-min sessions separated by 24 hours (data is recorded only on Day 2). […] Imipramine is used as a positive control for these studies. […] Compounds are in a clear solution. The amount of time spent immobile (defined as movements only necessary to keep the subject's head above water) is the dependent measure and recorded by an observer blinded to the drug treatment of the subjects. Data are analyzed by post-hoc Dunnett's test with alpha level set at 0.05. The mouse version of the forced swim test is most commonly used.

[1] = mean and standard error of the mean

Compound: N[C@@]1(C(=O)O)C[C@@H](Sc2nnc[nH]2)[C@H]2[C@H](C(=O)O)[C@H]21 [Example 1, (1R,2S,4R,5R,6R)-2-Amino-4-(4H-1,2,4-triazol-3-ylsulfanyl)bicyclo[3.1.0]hexane-2,6-dicarboxylic acid]
- inhibition of PCP evoked ambulations (ICR(CD-1) mice; multiple dose experiment, 10 mg/kg dose): 81±5%
- inhibition of PCP evoked ambulations (ICR(CD-1) mice; single dose experiment of 10 mg/kg): 78±9%
- ED60 (NIH-Swiss mice; 60 min prior to testing, single study): 10.5 mg/kg
- antidepressant-like effects (NIH-Swiss mice; F4,39=9.9, p<0.0001): prominent antidepressant-like effects
- maximal effect, % of vehicle immobility levels (NIH-Swiss mice; at the 10 mg/kg dose, single study): 61%
- ED60, mean of four separate replications (NIH-Swiss mice; [1]): 6.1 ± 2.5 mg/kg
- maximal effect, % of vehicle-treated immobility levels, four separate replications (NIH-Swiss mice; [1]): 49.5±11.5%
